Data from article PMC7794297.
“And” between values parts separate entries of the source, which are not always exact repeats. Identical values can stand only once. Like-named read-outs stand apart in the source and are kept apart here.

How the values were obtained:
[1] = Equilibration of the thiol-disulfide DCL of building blocks 1-4 followed by HPLC-MS; settings: 190 μM as fifth building block; Tris 20 mM pH 7.8, 6 °C; control 4 days
Method: DMSO percentage is 2.5% v/v. […] DCLs were analyzed by HPLC-MS until equilibration without stirring at 6 °C.
Control DCL. […] DMSO percentage is 2.5% v/v. Regarding Secox catalyzed DCL, different stocks of Secox were carried out in order to study the percentages of Secox. […] The DCLs were prepared at 6 °C without stirring and analyzed in several hours until the complete stabilization.

[2] = biological target: bovine serum albumin (BSA) (Bos taurus, UniProt P02769); test: BSA-directed DCL of building blocks 1-4; parameters: purchased Roche; key to NC of RPA: normalized change of relative peak area (RPA) vs blank DCL; settings: blank vs BSA-DCL; BSA 57 µM, Secox 5% mol, 24 h
[3] = NADPH-templated DCL of building blocks 1-4;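 further: values are means ± SD of DCC experiments run in triplicate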
[4] = Spermine-templated DCL of building blocks 1-4; settings: spermine DCL of 1-4
Method: (§1) Building blocks 2 and 3 equipped with carboxylate moieties to establish interactions with the protonated amine groups of the spermine were allowed to equilibrate at pH 7.8 and 6 °C (Fig. 8a). As expected in our control experiment, the major component in the absence of spermine was the linear tetramer (2)2(3)2. After the addition of spermine, the linear tetramer “decomposed” in order to form mainly the cyclic tetramer of (2)4, and the (3)2 dimer (Fig. 8a). As it was reported, several studies determined that the spermine was threaded through the macrocycle fixing the configuration to a highly symmetric stereoisomer of (2)4[36]. […] The precise composition of the DCL (with and without spermine), was assessed by measuring the relative peak area (RPA). Indeed, the normalized change of RPA was used to quantify the spermine influence in the outcome (Supplementary Fig. 42)[46]. The same template (spermine) was tested in our reference DCL of four building blocks (1–4) in the absence and presence of Secox (Fig. 8b). […] Additionally, two different templates were tested to confirm the absence of conflict between selenocystine and the templating effect. Spermidine and NADPH were introduced in our 4 building blocks DCL (1–4) in the absence and presence of Secox, leading to the amplification of different species and getting the same results as the non-catalyzed DCLs (Supplementary Figs. 44, 45, Supplementary Tables 7–10, and Supplementary Methods).
The mixture was stabilized in 96 h. […] The mixture was stabilized after 24 h. […] It was stabilized in 24 h. […] DCL was equilibrated in 96 h. DCLs were performed without stirring at 6 °C and analyzed by HPLC-MS.

[5] = Spermidine-templated DCL of building blocks 1-4;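 further: Spermidine-templated dynamic combinatorial library, normalized change of RPA compared between Secox-free and Secox-containing libraries, DCC runs done in triplicate, values given as mean ± SD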
[6] = biological target: glucose oxidase (GOx) (Aspergillus niger, UniProt P13006); test: Glucose oxidase-directed DCL of building blocks 1-4; parameters: purchased Sigma Aldrich; unit not given here; settings: blank vs GOx template DCL; GOx 57 μM, Secox 5% mol, 24 h
Method: The equilibration of the DCL was completed after 24 h (Fig. 9) and the oligomers were identified by HPLC-MS (Supplementary Figs. 4–20). The precise composition of the DCL (with and without GOx), was assessed by measuring the relative peak area (RPA). The normalized change of RPA was used to quantify the protein influence in the final DCL showing the amplification of the dimer of compound 4, that is (4)2 (Fig. 9b). Control experiments were set up to verify that the amplification of the dimer was not due to unspecific binding. Firstly the GOx was replaced by the bovine serum albumin (BSA). A stability study of BSA under the DCL conditions was performed using a fluorescence technique confirming the BSA stability in the DCL experiment (Supplementary Fig. 48)[50].
The DCL was stabilized for 24 h at 6 °C. Then, GOx was removed by ultracentrifugation through an Amicon ultra-filter (100 KDa). HPLC analysis was performed.

[7] = cited from earlier work
[8] = Spermine-templated DCL of building blocks 2 and 3; settings: spermine DCL of 2 and 3
Method: as §1
The DCL was stabilized at 96 h. […] The mixture was stabilized after 24 h. […] The DCL was stabilized at 96 h. […] The DCL was analyzed in 96 h after equilibration. DCLs were performed without stirring at 6 °C and analyzed by HPLC-MS.

glucose oxidase (GOx), sequence (P13006 17-605): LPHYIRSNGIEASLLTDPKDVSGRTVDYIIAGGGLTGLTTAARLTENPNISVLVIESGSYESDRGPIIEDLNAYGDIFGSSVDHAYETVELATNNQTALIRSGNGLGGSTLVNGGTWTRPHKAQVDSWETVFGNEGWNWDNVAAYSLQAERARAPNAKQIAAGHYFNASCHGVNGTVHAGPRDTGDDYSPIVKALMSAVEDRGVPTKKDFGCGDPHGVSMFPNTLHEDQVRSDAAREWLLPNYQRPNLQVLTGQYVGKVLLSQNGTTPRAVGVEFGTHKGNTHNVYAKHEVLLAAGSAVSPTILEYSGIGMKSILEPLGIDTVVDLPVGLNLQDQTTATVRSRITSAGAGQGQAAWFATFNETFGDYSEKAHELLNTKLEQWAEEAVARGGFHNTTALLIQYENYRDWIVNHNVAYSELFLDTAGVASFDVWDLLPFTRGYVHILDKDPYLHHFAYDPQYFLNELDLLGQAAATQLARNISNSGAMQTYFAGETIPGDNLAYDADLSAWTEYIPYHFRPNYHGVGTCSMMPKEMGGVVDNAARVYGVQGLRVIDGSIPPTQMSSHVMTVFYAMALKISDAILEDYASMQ
bovine serum albumin (BSA), sequence (P02769 25-607): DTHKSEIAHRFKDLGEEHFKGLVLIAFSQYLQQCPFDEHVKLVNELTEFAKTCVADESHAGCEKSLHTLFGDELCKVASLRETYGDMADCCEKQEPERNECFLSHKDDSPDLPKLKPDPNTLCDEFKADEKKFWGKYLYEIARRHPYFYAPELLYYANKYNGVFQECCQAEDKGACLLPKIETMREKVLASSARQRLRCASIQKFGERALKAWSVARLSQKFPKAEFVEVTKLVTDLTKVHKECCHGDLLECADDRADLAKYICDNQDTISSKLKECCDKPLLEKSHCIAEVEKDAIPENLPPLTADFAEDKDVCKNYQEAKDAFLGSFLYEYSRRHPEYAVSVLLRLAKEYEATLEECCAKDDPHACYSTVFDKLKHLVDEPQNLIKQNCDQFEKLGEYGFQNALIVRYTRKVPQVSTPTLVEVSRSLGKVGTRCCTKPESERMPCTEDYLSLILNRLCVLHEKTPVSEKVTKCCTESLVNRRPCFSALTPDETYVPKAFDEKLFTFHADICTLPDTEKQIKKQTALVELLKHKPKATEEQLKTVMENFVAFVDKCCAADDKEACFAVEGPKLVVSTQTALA

SMILES | DCL equilibration time [1] [days] | NC of RPA [2] | Normalized Change of RPA (NC) ([3]; 0% Secox) | Normalized Change of RPA (NC) ([3]; 5% Secox) | Normalized Change of RPA (NC) ([4]; 0% Secox) | Normalized Change of RPA (NC) ([4]; 5% Secox) | Normalized Change of RPA (NC) ([5]; 0% Secox) | Normalized Change of RPA (NC) ([5]; 5% Secox) | NC of RPA [6] | pKa ([7]; Cys thiol group) | pKa ([7]; Sec) | Normalized Change of RPA (NC) ([8]; Secox) | Normalized Change of RPA (NC) ([8]; no Secox)
N[C@@H](CSSC[C@H](N)C(=O)O)C(=O)O [Cysox, cystine] | 3 |  |  |  |  |  |  |  |  |  |  |  | 
O=C(O)c1cc(SSc2ccccc2)cc(SSc2ccccc2)c1 [(1)(4)2] |  | 45,89 |  |  |  |  |  |  |  |  |  |  | 
O=C(O)c1cc(SSc2cc(C(=O)O)c(SSc3ccccc3)cc2C(=O)O)c(C(=O)O)cc1SSc1ccccc1 [(2)2(4)2] |  | 0,31 | 0,13 | 0,11 | -1,00 | -1,00 | -1,00 | -1,00 | -1,00 |  |  |  | 
O=C(O)c1cccc(SSc2cc(C(=O)O)c(SSc3ccccc3)cc2C(=O)O)c1 [(2)(3)(4)] |  | 0,95 | -0,12 | -0,12 | -0,75 | -0,74 | -0,64 | -0,65 | -0,32 |  |  |  | 
N[C@@H](CS)C(=O)O [Cys, cysteine] |  |  |  |  |  |  |  |  |  | 8.22 and ~ 8.22 |  |  | 
O=C(O)c1cccc(SSc2cc(SSc3cccc(C(=O)O)c3)cc(C(=O)O)c2)c1 [(1)(3)2] |  | -0,75 | 1,24 | 1,23 | 1,19 | 1,25 | 0,83 | 0,86 | -0,46 |  |  |  | 
O=C(O)c1cc2cc(c1)SSc1cc(cc(C(=O)O)c1)SSc1cc(cc(C(=O)O)c1)SSc1cc(cc(C(=O)O)c1)SS2 [(1)4] |  | 0,14 | -0,84 | -0,88 | -0,14 | -0,12 | -0,47 | -0,43 | -0,86 |  |  |  | 
O=C(O)c1cccc(SSc2cc(C(=O)O)c(SSc3cccc(C(=O)O)c3)cc2C(=O)O)c1 [(2)(3)2] |  | -1,00 | 2,41 | 2,37 | -0,26 | -0,28 | -0,11 | -0,19 | 0,72 |  |  |  | 
N[C@@H](C[SeH])C(=O)O [Sec, selenocysteine] |  |  |  |  |  |  |  |  |  |  | 5.43 and ~ 5.43 |  | 
O=C(O)c1cc2cc(c1)SSc1cc(cc(C(=O)O)c1)SSc1cc(cc(C(=O)O)c1)SS2 [(1)3] |  | -0,19 | -0,70 | -0,68 | -0,65 | -0,66 | -0,42 | -0,44 | -0,21 |  |  |  | 
O=C(O)c1cccc(SSc2cc(C(=O)O)c(SSc3cc(C(=O)O)c(SSc4cccc(C(=O)O)c4)cc3C(=O)O)cc2C(=O)O)c1 [(2)2(3)2] |  | -1,00 | -0,69 | -0,64 | -1,00 | -1,00 | -1,00 | -1,00 | -1,00 |  |  |  | 
O=C(O)c1cccc(SSc2cccc(C(=O)O)c2)c1 [(3)2, 3,3'-disulfanediyldibenzoic acid] |  | -0,64 | 0,56 | 0,49 | 0,49 | 0,49 | 0,51 | 0,51 | -0,35 |  |  | 0.1 | 0.1
O=C(O)c1cc(SSc2ccccc2)cc(SSc2cc(C(=O)O)c(SSc3ccccc3)cc2C(=O)O)c1 [(1)(2)(4)2] |  | 2,84 | -1,00 | -1,00 | -1,00 | -1,00 | -1,00 | -1,00 | -1,00 |  |  |  | 
O=C(O)c1cccc(SSc2cc(SSc3ccccc3)cc(C(=O)O)c2)c1 [(3)(1)(4)] |  | 2,28 | -0,82 | -0,76 | -0,51 | -0,51 | -1,00 | -1,00 | 0,54 |  |  |  | 
O=C(O)c1cccc(SSc2cc(SSc3cc(SSc4cccc(C(=O)O)c4)cc(C(=O)O)c3)cc(C(=O)O)c2)c1 [(1)2(3)2] |  | 0,63 | -0,06 | -0,06 | 0,46 | 0,38 | 0,34 | 0,27 | -0,36 |  |  |  | 
O=C(O)c1cc(SSc2ccccc2)c(C(=O)O)cc1SSc1ccccc1 [(2)(4)2] |  | 1,30 | -0,16 | -0,18 | 0,08 | 0,08 | 0,06 | 0,04 | 0,19 |  |  |  | 
